Test results reported in PubChem BioAssay AID1508612.

Test: passive permeability, PAMPA, ADME assay (AID 1508612)
Conditions: pH 7.4, 30.0 min, 50.0 µM

| SMILES | Papp [nm/s] |
| --- | --- |
| COc1cccc(CNc2ccc(S(=O)(=O)Nc3cccnc3)cc2)c1O | 6320 |
| O=C(Nc1nc(-c2ccccc2)cs1)c1ccccc1-n1cnnn1 | < 10 |
| CN1C(=O)c2ccccc2[S@](=O)c2ccc(C(=O)NCCc3cccs3)cc21 | 6260 |
| COc1ccc(-n2nc(C3CCCN([S+](=O)([O-])c4cccc(C(F)(F)F)c4)C3)[nH]c2=O)cc1 (centres undefined) | 5690 |
| Cc1ccc(S(=O)(=O)Nc2ccc(OC(F)(F)F)cc2C(=O)Nc2nc(-c3ccccc3)cs2)cc1 | 16 |
| COc1ccc(C(=O)Nc2nc(-c3ccccc3)cs2)cc1NS(=O)(=O)c1ccc(C)cc1 | 149 |
| COc1ccc(CN2CCNc3cc(Nc4ccccc4)ncc3C2)cn1 | 8340 |
| CNC(=O)C1CCN(C(=O)c2ccc(-c3ncc4cnc(-c5ccccc5)cn34)cc2)CC1 | 154 |
| CNC(=O)c1cccc(-c2cnc(Nc3cccc(C(F)(F)F)c3)c3c2CCO3)c1 | 589 |
| O=C(Nc1cccc(C(F)(F)F)c1)c1ccccc1NC(=O)C1CCCCC1 | < 10 |
| CN(C)C(=O)c1nc(-c2ccc(Cl)cc2Cl)c2cnccn12 | > 10000 |
| COc1ccc(-c2cc(-c3cccc4[nH]ncc34)cn3cncc23)cn1 | < 10 |
| Cc1noc(C)c1-c1csc(N2CCC(C(N)=O)CC2)n1 | 589 |
| COc1ccc2[nH]c(=O)c(-c3noc(-c4cccs4)n3)cc2c1 | 3510 |
| Cc1cccc(C)c1Nc1c(-c2cccs2)nc2ncccn12 | 9690 |
| CN1CCN(c2ccc(Nc3c4ccccc4nc4ccccc34)cc2)CC1 | > 10000 |
| CC1=C[C@@H](CN2C(=O)C(C)=C(C)C2=O)[C@H](C(C)C)C[C@H]1Cc1nc2c(C)cccc2[nH]1 | 5850 |
| Cn1ccc2c(C(=O)NCC3CCC(=O)N3)nc(-c3ccccc3C#N)cc21 (centres undefined) | 2650 |
| CCC[C@H](NC(=O)C(C#N)=Cc1cccc(Br)n1)c1ccccc1 | > 10000 |
| C=Cc1ccc(Cn2c(C(=O)O)c(CNCc3ccccc3)c3ccc(OC)cc32)cc1 | 9000 |
| Cc1cc(-c2nnc3n2CCCCC3)c(C)n1-c1cccc(Cl)c1 | > 10000 |
| COC(=O)c1cccc(NC(=O)c2cnc(-c3ccc(F)cc3)nc2-c2ccncc2)c1 | > 10000 |
| NC(=O)C1CCN(c2nc(-c3cccnc3)cs2)CC1 | 232 |
| CC(=O)c1c(C)[nH]c(C(=O)Nc2ccc(OCCCN(C)C)c(S(=O)(=O)Nc3ccc(Br)cc3)c2)c1C | 747 |
| NC1CCN(C(=O)C2CCCN(c3nc(-c4ccccc4)nc4c3CCC4)C2)CC1 (centres undefined) | 4750 |

| SMILES | Papp [nm/s] |
| --- | --- |
| O=C1CCCC2=C1C(c1[nH]ncc1Cl)N=C(Nc1nc3c(Cl)cccc3o1)N2 (centres undefined) | 1620 |
| O=C(c1ccc2c(c1)ncn2-c1cccc(Cl)c1)N1CCCCC1 | 8950 |
| COc1ccc(NC(=O)c2ccccc2)cc1S(=O)(=O)Nc1ccc(Br)cc1 | 7310 |
| CCCCOc1ccccc1C(=O)Nc1ccccc1C(=O)Nc1cccc(S(=O)(=O)C(F)(F)F)c1 | 52 |
| O=[S+]([O-])(Nc1nccs1)c1ccc(NCc2cccc3c2NCC3)cc1 | 189 |
| NC(=O)C1CCN(c2nccc(-c3ccc4c(c3)OCCCO4)n2)CC1 | 6530 |
| Cc1cc(-c2nnc3n2CCCCC3)c(C)n1-c1cccnc1 | 492 |
| Cc1ccc(S(=O)(=O)Nc2cccc(C(=O)Nc3nc(-c4ccccc4)cs3)c2Cl)cc1 | < 10 |
| CC(=O)N1CCc2c(sc3c2c(=O)n(-c2ccccc2)c(=O)n3Cc2cccc(C(F)(F)F)c2)C1 | > 10000 |
| O=C(c1ccc2c(c1)ncn2-c1ccc(Cl)cc1)N1CCCCC1 | > 10000 |
| NC(=O)COc1ccc(C2CC(=O)Nc3n[nH]c(Nc4ccccc4)c32)cc1 (centres undefined) | 28 |
| Nc1nc(Nc2ccc(S(N)(=O)=O)cc2)n(C(=S)Nc2c(F)cccc2F)n1 | 60.7 |
| Fc1cc(Nc2nc(-c3ccncc3)nc3ccccc23)ccc1C(F)(F)F | 6410 |
| COc1ccc(CNC(=O)CCCn2nc(C)c3c(C)n(-c4ccc(C)cc4)nc3c2=O)cc1OC | 2350 |
| CN(C)c1cc(-c2nc(Nc3ccc(F)c(F)c3)c3ccccc3n2)ccn1 | > 10000 |
| Cc1ccc(-n2nc3c(N4CCCC(C(=O)NCc5ccccc5C)C4)nnc(C)c3c2C)cc1 (centres undefined) | 1730 |
| CC(=O)Nc1ccc(C(=O)Nc2ccccc2N)cc1 | < 10 |
| CCOc1ccc(CCNC(=O)c2cc3cnccc3n2Cc2cccc(C)n2)cc1OCC | 70.2 |
| Fc1ccc(Oc2nc(-c3ccncc3)nc3ccccc23)cc1F | 165 |
| O=S(=O)(Nc1nccs1)c1ccc(NCc2cc(F)ccc2O)cc1 | 82.3 |
| COc1ccc(-c2nc3ccccc3c(=O)n2Cc2ccco2)cc1COc1ccc(NC(C)=O)cc1 | 87.2 |
| COc1cc2nccc(Oc3ccc(NC(=O)C4(C(=O)Nc5ccc(F)cc5)CC4)cc3)c2cc1OC | 5070 |
| O=C(Cc1ccc(Cl)c(Cl)c1)Nc1ccc(S(=O)(=O)Nc2ccon2)cc1 | 91.7 |
| Cc1cc(NC(=O)c2ccc(NC(=O)Cc3ccc(Cl)c(Cl)c3)cc2)no1 | > 10000 |
| CCOc1ccc(C2C(C(=O)Nc3ccccc3OC)=C(C)Nc3c(C(=O)Nc4cccc(C)c4)cnn32)cc1 (centres undefined) | 8710 |

| SMILES | Papp [nm/s] |
| --- | --- |
| O=C(O)c1cccc(-n2cccc2/C=C2/NC(=O)N(c3cccc(Cl)c3)C2=O)c1 | 39.6 |
| c1ccc(-c2cc(Nc3nc(-c4ccncc4)nc4ccccc34)n[nH]2)cc1 | 394 |
| O=[S+]([O-])(Nc1ccc(N2CCNCC2)cc1)c1ccc(NCc2cccc(Cl)c2O)cc1 | 76.5 |
| CC1(C)CCC(c2ccc(Cl)cc2)=C(CN2CCN(c3ccc(C(=O)NS(=O)(=O)c4ccc(N[C@H](CCN5CCOCC5)CSc5ccccc5)c(S(=O)(=O)C(F)(F)F)c4)cc3)CC2)C1 | 11 |
| CN1C[C@@H]2C[C@H]1CN2c1cc2c(cc1F)c(=O)c(C(=O)O)cn2C1CC1 | < 10 |
| O=C(NCc1ccccc1)C1CCN(c2nc(-c3ccc(Br)cc3)cs2)CC1 | 232 |
| CN(C)c1cccc(-c2nccc(N3CCC(C(N)=O)CC3)n2)c1 | 2870 |
| COc1ccc(NC(=O)c2[nH]c(C)c(C(C)=O)c2C)cc1S(=O)(=O)Nc1cccc(C#N)c1 | 309 |
| Cc1ccc(S(=O)(=O)Nc2cnccc2C(=O)Nc2nc(-c3ccccc3Cl)cs2)cc1 | 460 |
| NC(=O)C1CCN(c2cc(-c3ccc4c(c3)OCCCO4)ncn2)CC1 | 370 |
| NC(=O)C(=O)N/N=C/c1ccc([N+](=O)[O-])o1 | 79.9 |
| CC(C)c1ccccc1-c1ncc(F)c(NCc2ccc(-c3cccnc3)s2)n1 | > 10000 |
| CCN1CCN(c2ccc(Nc3ccc(-c4ccc(C(N)=O)cc4)n4ncnc34)cc2)CC1 | 7470 |
| O=C(Nc1cccc(F)c1)c1cc(-c2ccc[nH]2)n[nH]1 | 1360 |
| CC1=Nc2cc(C(=O)NCc3ccccc3Cl)ccc2Sc2c(C)ccc(C)c21 | 1610 |
| O=C(NCCCCc1ccccc1)C1CCN(c2nc(-c3ccc(Br)cc3)cs2)CC1 | 53 |
| Cc1ccnc(NC(=S)N2CCC(Nc3cccc(C(F)(F)F)c3)CC2)c1 | 8350 |
| O=C1CCCC2=C1C(c1[nH]ncc1Br)N=C(Nc1nc3ccccc3o1)N2 (centres undefined) | 7970 |
| O=C(NCCO)c1cccc(-c2cc(Nc3ccc(OC(F)(F)F)cc3)ncn2)c1 | 4720 |
| CC(=O)c1c(C)[nH]c(C(=O)Nc2cccc([S+](=O)([O-])Nc3ccccc3C)c2)c1C | 6280 |
| COCC(C)Nc1ncnc2c1cnn2-c1ccc(C)c(C)c1 (centres undefined) | 6900 |
| C[C@]12N[C@H](Cc3ccccc31)c1ccccc12 | > 10000 |
| CCCCCn1c(CCCNC(=O)c2ccccc2OC)nc2ccccc21 | > 10000 |
| Cc1ccnc(NC(=S)N2CCN(c3cccc(C(F)(F)F)n3)CC2)c1 | 8660 |
